# Read-outs that look alike come from different tables or passages of the source.
# What was measured:
# [1] = test system: Staphylococcus epidermidis ATCC 12228; assay: Broth microdilution MIC; conditions: ATCC12228, read-out: Broth Microdilution MIC
# [2] = test system: S. aureus bovine strain 2117 embedded in preformed biofilm; assay: Biofilm-eradication test (MBEC assay); format: cell-based, Staphylococcus aureus; conditions: concentrations up to 512 µg/mL
# Method: The viability of bacteria in preformed biofilms treated with PC206 was evaluated using the MBEC assay™ system (formerly the Calgary Biofilm Device). The device consists of a plastic lid with 96 pegs and a 96-well plate. […] Plates were incubated at 35 °C for 24 h with agitation (120 rpm). […] The pegs were washed three times with PBS and the biofilm was sonicated for 10 min, and then transferred into a new 96-well base plate. The 96-well plate was centrifuged for 5 min at 180 g to recover the detached bacteria.
# [3] = test system: Staphylococcus aureus ATCC 29213; assay: Broth microdilution MIC; conditions: ATCC29213, read-out: Broth Microdilution MIC
# [4] = test system: Enterococcus faecalis ATCC 29212; assay: Broth microdilution MIC; conditions: ATCC29212, read-out: Broth Microdilution MIC
# [5] = test system: S. haemolitycus; assay: Susceptibility of isolate panel (MIC50, MIC90, range); format: cell-based, S. haemolyticus
# From the text: (§1) Reference strains for this study (S. aureus ATCC 29213, ATCC 29740 [bovine mastitis strain Newbould], S. epidermidis ATCC 12228, E. coli ATCC 35695, E. faecalis ATCC 29212) were obtained from the American Type Culture Collection (ATCC, Rockville, MD). S. aureus strains CMRSA-10 and CMRSA-2 were obtained from the Laboratoire de santé publique du Québec (LSPQ, Sainte-Anne-de-Bellevue, QC, Canada) and are Canadian CA-MRSA USA-300 and HA-MRSA USA-100 clones, respectively. The strain E. coli imp4213 (lptD), used as a control in MIC assays, is a derivative of E. coli ATCC 35695 (E. coli MC4100) with an increased membrane permeability. […] Other MRSA strains used in this study are clinical isolates of human origin obtained from the microbiology laboratory of the Centre Hospitalier Universitaire de Sherbrooke (CHUS, Sherbrooke, QC, Canada). Bovine mastitis strains (S. aureus, S. chromogenes, S. haemolyticus, S. hominis, S. simulans) were obtained from the Canadian Bovine Mastitis and Milk Quality Research Network (CBRQMN, St-Hyacinthe, QC, Canada). Among these strains, S. aureus 2117 is a high producer of biofilm and was used in the biofilm-eradication assay. S. epidermidis isolates were provided by Centre de Recherche en Infectiologie (CRI) de Québec (Québec, QC, Canada).
# (§2) The antibacterial activity of the most promising compound, PC206, was also evaluated against larger groups of clinical isolates of human and animal origin. The MIC50 and MIC90 values represented the concentrations of drug required to inhibit the growth of 50% and 90% of the bacterial strains tested, respectively.
# [6] = test system: Escherichia coli ΔlptD4213; assay: microbe, parasite or virus in culture; format: cell-based; conditions: read-out: Broth Microdilution MIC
# From the text: as §1
# [7] = test system: Bovine S. aureus; assay: Susceptibility of isolate panel (MIC50, MIC90, range); format: cell-based, Staphylococcus aureus
# From the text: as §1, §2
# [8] = test system: MRSA; assay: as above; format: cell-based, Staphylococcus aureus
# From the text: as §1, §2
# [9] = test system: Bacillus subtilis xpt-lacZ; assay: Broth microdilution MIC; format: cell-based; conditions: read-out: Broth Microdilution MIC
# [10] = test system: Staphylococcus aureus CMRSA-2; assay: Broth microdilution MIC; format: cell-based
# From the text: as §1
# [11] = test system: Staphylococcus aureus CMRSA-10; assay: Broth microdilution MIC; format: cell-based
# From the text: as §1
# [12] = test system: Escherichia coli ATCC 35695; assay: Broth microdilution MIC; conditions: ATCC35695, read-out: Broth Microdilution MIC
# [13] = test system: S. simulans; assay: Susceptibility of isolate panel (MIC50, MIC90, range); format: cell-based
# From the text: as §1, §2
# [14] = test system: S. epidermidis; assay: as above; format: cell-based
# From the text: as §1, §2
# [15] = test system: S. chromogenes; assay: as above; format: cell-based
# From the text: as §1, §2
# [16] = test system: S. hominis; assay: as above; format: cell-based
# From the text: as §1, §2
# [17] = test system: guanine riboswitch-lacZ fusion construct (xpt-lacZ); assay: Riboswitch regulation assay (lacZ-gene reporter); format: cell-based, B. subtilis; conditions: concentrations below the MIC of 0.25 µg/mL
# From the text: The novel pyrimidine compounds, especially PC206, display specificity and potency against some staphylococci but not the other bacterial genus (Table 1 and Table 2). Because they are structurally derived from PC1 and PC2, these novel antibiotic candidates are expected to have the same mode of action. […] To verify this hypothesis, a strain of B. subtilis with a guanine riboswitch-lacZ fusion construct (named xpt-lacZ) integrated in its chromosome was exposed to these new antimicrobials. […] Therefore, it is an adequate reporter species. The metabolization of substrate ONPG into colored ONP was normalized by the bacterial suspension absorbance at 600 nm (Miller units) and relativized to the untreated condition.
# β-galactosidase gene expression in the presence of the new pyrimidine analogs was studied, using an xpt-lacZ transcriptional fusion construct integrated in the genome of B. subtilis as previously described. Briefly, cultures were grown for 5 h at 35 °C in CAMHB, from an initial optical density of 0.05 at 600 nm (OD600), and then diluted 1:20 and in the presence of different concentrations of the compounds tested. Cultures were centrifuged for 10 min at 13,100 rpm, the supernatant was discarded, and pellets were suspended in a Z-buffer (NaH2PO4 40 mM, Na2HPO4 60 mM, MgSO4 1 mM, KCl 10 mM). Cultures OD600 were measured, and bacteria were then lysed with lysozyme (1 mg/mL) and β-mercaptoethanol 50 mM for 30 min. Lysates were centrifuged for 10 min at 13,100 rpm, and supernatants were incubated for 5 min at 30 °C with the substrate orthonitrophenyl-β-galactoside (ONPG; Sigma Aldrich). Reactions were stopped with Na2CO3 1M, supernatants OD420 were measured, and Miller units were calculated. A decrease in β-galactosidase activity indicated binding of the test compound to the riboswitch. Guanine and oxacillin were used as […] controls, respectively. The formula to measure Miller units is as follows: Millerunits=1000×OD420/t·v·OD600
# Here, t represents the time of incubation with ONPG, and v represents the volume of the reaction.
structure (smiles),measurement,setting,value
"CN[C@H](CC(C)C)C(=O)N[C@H]1C(=O)N[C@@H](CC(N)=O)C(=O)N[C@H]2C(=O)N[C@H]3C(=O)N[C@H](C(=O)N[C@H](C(=O)O)c4cc(O)cc(O)c4-c4cc3ccc4O)[C@H](O)c3ccc(c(Cl)c3)Oc3cc2cc(c3O[C@@H]2O[C@H](CO)[C@@H](O)[C@H](O)[C@H]2O[C@H]2C[C@](C)(N)[C@H](O)[C@H](C)O2)Oc2ccc(cc2Cl)[C@H]1O [VAN, vancomycin]",MIC,[1],1 mg/L
same,Effect on viable counts in preformed biofilm,[2],did not impact viable counts
same,MIC,[3],0.5 mg/L
same,MIC,[4],4 mg/L
same,MIC Range,"[5]; S. haemolitycus, 10 isolates",0.25 to 4 mg/L
same,MIC50,[5]; Staphylococcus haemolyticus,2 mg/L
same,MIC90,[5]; Staphylococcus haemolyticus,4 mg/L
same,MIC,[6],1 mg/L
same,MIC Range,"[7]; Bovine S. aureus, 48 isolates",0.25 to 1 mg/L
same,MIC50,[7]; Staphylococcus aureus,0.5 mg/L
same,MIC90,[7]; Staphylococcus aureus,0.5 mg/L
same,MIC Range,[8]; 42 isolates,0.5 to 4 mg/L
same,MIC50,[8]; Staphylococcus aureus,1 mg/L
same,MIC90,[8]; Staphylococcus aureus,4 mg/L
same,MIC,[9],0.25 mg/L
same,MIC,"[10]; CMRSA2, read-out: Broth Microdilution MIC",1 mg/L
same,MIC,"[11]; CMRSA10, read-out: Broth Microdilution MIC",1 mg/L
same,MIC,[12],> 128 mg/L
same,MIC Range,"[13]; S. simulans, 5 isolates",0.5 mg/L
same,MIC50,[13]; Staphylococcus simulans,0.5 mg/L
same,MIC90,[13]; Staphylococcus simulans,0.5 mg/L
same,MIC Range,"[14]; S. epidermidis, 10 isolates",0.5 to 1 mg/L
same,MIC50,[14]; Staphylococcus epidermidis,1 mg/L
same,MIC90,[14]; Staphylococcus epidermidis,1 mg/L
same,MIC50,[15],0.5 mg/L
same,MIC90,[15],0.5 mg/L
same,MIC Range,"[15]; S. chromogenes, 5 isolates",0.5 mg/L
same,MIC Range,"[16]; S. hominis, 10 isolates",0.25 to 1 mg/L
same,MIC50,[16]; Staphylococcus hominis,0.5 mg/L
same,MIC90,[16]; Staphylococcus hominis,0.5 mg/L
"CC(C)(O/N=C(\C(=O)N[C@@H]1C(=O)N2C(C(=O)[O-])=C(C[n+]3ccccc3)CS[C@H]12)c1csc(N)n1)C(=O)O [CAZ, ceftazidime, reference compound]",MIC,[6],0.03 mg/L
same,MIC,[12],0.25 mg/L
"Cc1onc(-c2ccccc2)c1C(=O)N[C@@H]1C(=O)N2[C@@H]1SC(C)(C)[C@@H]2C(=O)O [OXA, oxacillin]",MIC,[3],0.25 mg/L
same,MIC50,"[5]; Staphylococcus haemolyticus, S. haemolitycus, 10 isolates, CAMHB with 2% NaCl, read-out: MIC50",> 16 mg/L
same,MIC90,"[5]; Staphylococcus haemolyticus, S. haemolitycus, 10 isolates, CAMHB with 2% NaCl, read-out: MIC90",> 16 mg/L
same,MIC Range,"[7]; Bovine S. aureus, 48 isolates, CAMHB with 2% NaCl",0.03 to 32 mg/L
same,MIC50,"[7]; Staphylococcus aureus, Bovine S. aureus, 48 isolates, CAMHB with 2% NaCl, read-out: MIC50",0.12 mg/L
same,MIC90,"[7]; Staphylococcus aureus, Bovine S. aureus, 48 isolates, CAMHB with 2% NaCl, read-out: MIC90",0.25 mg/L
same,MIC Range,"[8]; 42 isolates, CAMHB with 2% NaCl",4 to 64 mg/L
same,MIC50,"[8]; Staphylococcus aureus, 42 isolates, CAMHB with 2% NaCl, read-out: MIC50",32 mg/L
same,MIC90,"[8]; Staphylococcus aureus, 42 isolates, CAMHB with 2% NaCl, read-out: MIC90",64 mg/L
same,MIC,[9]; B. subtilis xpt-lacZ,0.25 mg/L
same,MIC,"[10]; CMRSA2, S. aureus CMRSA-2, CAMHB supplemented with 2% NaCl, read-out: Broth Microdilution MIC",> 64 mg/L
same,MIC,"[11]; CMRSA10, S. aureus CMRSA-10, CAMHB supplemented with 2% NaCl, read-out: Broth Microdilution MIC",64 mg/L
same,Effect on Miller units,[17],did not affect the expression of Miller units
same,MIC Range,"[13]; S. simulans, 5 isolates, CAMHB with 2% NaCl",0.06 to 0.12 mg/L
same,MIC50,"[13]; Staphylococcus simulans, S. simulans, 5 isolates, CAMHB with 2% NaCl, read-out: MIC50",0.06 mg/L
same,MIC90,"[13]; Staphylococcus simulans, S. simulans, 5 isolates, CAMHB with 2% NaCl, read-out: MIC90",0.12 mg/L
same,MIC Range,"[14]; S. epidermidis, 10 isolates, CAMHB with 2% NaCl",0.03 to 16 mg/L
same,MIC50,"[14]; Staphylococcus epidermidis, S. epidermidis, 10 isolates, CAMHB with 2% NaCl, read-out: MIC50",2 mg/L
same,MIC90,"[14]; Staphylococcus epidermidis, S. epidermidis, 10 isolates, CAMHB with 2% NaCl, read-out: MIC90",> 16 mg/L
same,MIC Range,"[15]; S. chromogenes, 5 isolates, CAMHB with 2% NaCl",0.06 to 0.12 mg/L
same,MIC50,"[15]; S. chromogenes, 5 isolates, CAMHB with 2% NaCl, read-out: MIC50",0.12 mg/L
same,MIC90,"[15]; S. chromogenes, 5 isolates, CAMHB with 2% NaCl, read-out: MIC90",0.12 mg/L
same,MIC50,"[16]; Staphylococcus hominis, S. hominis, 10 isolates, CAMHB with 2% NaCl, read-out: MIC50",1 mg/L
same,MIC90,"[16]; Staphylococcus hominis, S. hominis, 10 isolates, CAMHB with 2% NaCl, read-out: MIC90",> 16 mg/L
"CC[C@@H]1CCN[C@H](C(=O)N[C@@H]([C@H]2O[C@H](SC)[C@H](O)[C@@H](O)[C@H]2O)[C@H](C)Cl)C1 [PIR, pirlimycin]",MIC50,"[5]; S. haemolitycus, 10 isolates",0.25 mg/L
same,MIC90,"[5]; S. haemolitycus, 10 isolates",>16 mg/L
same,MIC50,"[7]; Bovine S. aureus, 48 isolates",0.25 mg/L
same,MIC90,"[7]; Bovine S. aureus, 48 isolates",0.5 mg/L
same,MIC Range,"[7]; Bovine S. aureus, 48 isolates",0.12 to 1 mg/L
same,MIC50,[8]; 42 isolates,>64 mg/L
same,MIC90,[8]; 42 isolates,>64 mg/L
same,MIC50,"[13]; S. simulans, 5 isolates",0.12 mg/L
same,MIC90,"[13]; S. simulans, 5 isolates",0.25 mg/L
same,MIC Range,"[13]; S. simulans, 5 isolates",0.12 to 0.25 mg/L
same,MIC50,"[14]; S. epidermidis, 10 isolates",0.12 mg/L
same,MIC90,"[14]; S. epidermidis, 10 isolates",>16 mg/L
same,MIC50,"[15]; S. chromogenes, 5 isolates",0.06 mg/L
same,MIC90,"[15]; S. chromogenes, 5 isolates",1 mg/L
same,MIC Range,"[15]; S. chromogenes, 5 isolates",0.06 to 2 mg/L
same,MIC50,"[16]; S. hominis, 10 isolates",1 mg/L
same,MIC90,"[16]; S. hominis, 10 isolates",>16 mg/L
